Laboratory results as given in article PMC4428838, “Optimization of Invasion-Specific Effects of Betulin Derivatives on Prostate Cancer Cells through Lead Development” (PLoS ONE, 2015).

Key:
Type in all cases: cell-based
[1] = test system: PC-3 cells; assay: Primary 3D screen in Matrigel ECM, morphometric image analysis (AMIDA) of invasion, growth and cell death; details: PC-3 in 3D Matrigel; for anti-invasive effects in 3D culture (in words): 0.03-1 μM
Experimental: Three standard of care compounds widely used against PrCa were added as controls; namely, the androgen receptor antagonist enzalutamide (MDV3100), the C17α-hydroxylase/C17,20-lyase inhibitor abiraterone (Zytiga), and the classic mitotic inhibitor paclitaxel. Treatments started at day 4, when well-differentiated round acini were established.
The live 3D cell cultures were then stained with reactive dyes Calcein AM to detect living, and ethidium homodimer to detect dead cells. Images (Fig 4A) were acquired with confocal microscope and image data were analyzed with the AMIDA software. The principles of morphometric image analysis are briefly outlined in S2 Fig.
Fig 4 Primary 3D screen. PC-3 cells were cultured in 3D Matrigel ECM for 4 days and treated for 6 days with 25 betulin derivatives (from 2D high throughput screens), DMSO/vehicle control, and three reference compounds. A) Representative maximum intensity projections of confocal microscope stack images for selected compound treatments at 300 nM concentration (5× objective, scale 100 μm). B) Three graphs showing the relative impact on three morphometric parameters for 7 betulin derivatives, DMSO control, and one control compound (paclitaxel). […] C) Hierarchical clustering was done using three morphological parameters derived from PC3 organoids: spheroid size (area), complexity and the number of dead cells. D) Wound healing curves of the two betulin derivatives 4 and 20, highlighting the 50% cut-off level (orange dashed line).
Next, statistical analyses were performed to interpret the complex image data (Fig 4B and 4C). For simplicity, we focused on only three, basic morphologic parameters from the multiparametric AMIDA readout (Fig 4B): 1) Area (indicating growth of organoids), 2) structural Complexity (as a measure of the intensity of invasion), and 3) Relative Area of dead cells within organoids (red signal as a measure of cytoxicity or apoptosis). Area (Size of organoids; Fig 4B, upper panel) was measured as the number of pixels within a segmented structure. […] Shape Complexity (Fig 4B, middle panel) was obtained using the structure size (area) and perimeter (number of border pixels). The more regular the shape of an organoid, the closer it is to a perfect circle, thus minimizing the perimeter relative to object size. […] Deviations from this average (residuals) were interpreted as a measure for the shape complexity of organoids. As a logical lower limit for this measure (represented by a perfect circle), we adjusted the intercept (height level) of the regression line to render all returned residuals as positive numbers.
All 3D cultures were done in growth factor-free Matrigel Basement-membrane Matrix (Corning Inc., New York, NY, USA) using 96-well Angiogenesis μ-plates (ibidi GmbH, Munich, Germany) as described before.[38] “Sandwich” assays in short: bottom wells of cooled Angiogenesis plates were filled with 10 μL 4 mg/mL Matrigel, centrifuged for 20 min 200 g and incubated at 37°C temperature for approximately 30–60 min or until the ECM had polymerized. 1,000–1,500 cells were mixed in 2 mg/mL ECM-medium, and 20 μL of cell suspension was added in each well. The plates were centrifuged for 10 min at 100 g, or until the cells had settled on top of the lower ECM. Finally, the outer wells and side reservoirs were filled with water for humidification, and the culture plates placed into the incubator for 3–4 h or overnight. The following day, 60 μL of cell culture medium were added; refreshed every third day by carefully aspirating the medium.

[2] = test system: LAPC-4; assay: Secondary 3D screen (spheroid size, complexity, cell death); details: yellow and red clusters
From the text: Next, the 25 selected betulin derivatives depicted in Figs 1–3 including control compounds were again thoroughly tested across the same panel of prostate-derived cell lines already used in the preliminary, 2D high-throughput screen. The resulting dendrograms were either generated separately for each cell line (S4 Fig), combined into a single dendrogram (Fig 5A), or shown as reduced organoid sizes (area; Fig 5B).
Fig 5 Secondary 3D screens. Experimental betulin derivatives and control compounds were tested across a panel of prostate cancer lines (LNCaP, LAPC-4) and non-transformed, prostate epithelial cells (EP156T) in 3D culture. A) The dendrogram is based on three main morphological parameters and combines all data from primary and secondary 3D screens. […] B) Boxplots showing the impact of selected compounds on spheroid size (Area). Data scaling: as described in Fig 4 C) Effects of all betulin derivatives and control compounds on cell death (number of dead cells).
All 3D cultures were done in growth factor-free Matrigel Basement-membrane Matrix (Corning Inc., New York, NY, USA) using 96-well Angiogenesis μ-plates (ibidi GmbH, Munich, Germany) as described before.[38] “Sandwich” assays in short: bottom wells of cooled Angiogenesis plates were filled with 10 μL 4 mg/mL Matrigel, centrifuged for 20 min 200 g and incubated at 37°C temperature for approximately 30–60 min or until the ECM had polymerized. 1,000–1,500 cells were mixed in 2 mg/mL ECM-medium, and 20 μL of cell suspension was added in each well. The plates were centrifuged for 10 min at 100 g, or until the cells had settled on top of the lower ECM. Finally, the outer wells and side reservoirs were filled with water for humidification, and the culture plates placed into the incubator for 3–4 h or overnight. The following day, 60 μL of cell culture medium were added; refreshed every third day by carefully aspirating the medium. This “sandwich” setting allows almost unifocal alignment of cells and 3D structures in a single optical plane, thus reducing the time required for confocal stack imaging.
All control compounds were purchased from Selleck (Munich, Germany), except for staurosporine (Sigma-Aldrich, St. Louis, MO, USA) and Y-27632 (Tocris, Bristol, UK) and dissolved in dimethyl sulfoxide (DMSO) as a vehicle at 10 mM. In the primary and secondary 3D screens, experimental and control compound exposures were performed in triplicates. Four concentrations for each compound were applied (0.03, 0.1, 0.3 and 1 μM). Compound treatments were initiated four days after cell embedding, and continued for six days after which spheroids were stained and imaged.
Supplementary file pone.0126111.s004.eps: S4 Fig Secondary screens. Dendrograms for A) LNCaP, B) LAPC-4, and C) Ep156T betulin screens in 3D culture have been constructed using three main read-outs: spheroid size, spheroid complexity, and cell death. […] (EPS) Click here for additional data file.

[3] = test system: PC-3; assay: Wound healing assay in 2D monolayer culture (IncuCyte); details: example for inactive derivatives
Experimental: Cells were cultured on ImageLock plates (Essen Bioscience, Ann Arbor, MI, USA) until fully confluent and scratched with a WoundMaker instrument (Essen Bioscience). All detached cells were removed by aspiration and medium supplemented with experimental compounds was added. Wound closure was monitored and quantified with the IncuCyte live-cell imager (Essen Bioscience).
A) Graph showing the transition of PC-3 spheroids from symmetrical acini to irregular invasive structures over 6 days, as measured by general symmetry (roundness %). […] B) Conventional wound healing assay performed in monolayer culture over a period of 64 hours. Wound closure is measured as relative wound density i.e. percentage of original wound area reclaimed by migrating cells. […] (EPS) Click here for additional data file.

[4] = test system: PC3 cells; assay: Cell morphology and actin cytoskeleton in 2D monolayer culture; details: PC3, 2D, 72h
Experimental: As a control, we also tested morphologies treated with the same panel of anti-invasive compounds 4, 5, 6, 16 and 20 as well as betulin (1) on PC3 cells grown in 2D monolayer cultures (S9 Fig).
Supplementary file pone.0126111.s009.tif: S9 Fig Morphologies of PC-3, LNCaP and Ep156T cells in 2D monolayer culture, exposed 72h to selected betulin derivatives. Actin cytoskeleton (filamentous or F- actin) is stained green (LifeAct), nuclei with a red dye (confocal microscope images, 40× objective, scale bar shown for each panel on the right lower corner). (TIF) Click here for additional data file.

## C=C(C)[C@@H]1CC[C@]2(COC(C)=O)CC[C@]3(C)C(CCC4[C@@]5(C)Cc6cnoc6C(C)(C)C5CC[C@]43C)C12 (stereo partly drawn) [Compound 8]
[1]; 6 days treatment
  anti-invasive effects in 3D culture (in words): negligible effects on the invasive phenotype

## C[C@]12CC[C@H](O)CC1=CC[C@@H]1[C@@H]2CC[C@]2(C)C(c3cccnc3)=CC[C@@H]12 [abiraterone, reference compound]
[1]; paclitaxel at 30 and 100 nM
  effect on morphometric measures (area, complexity, dead cells): no noticeable effect
[2]
  efficacy in 3D LAPC-4 culture (dendrogram clusters): efficacy of all positive controls

## C=C(C)[C@@H]1CC[C@]2(C=O)CC[C@]3(C)C(CCC4[C@@]5(C)Cc6cnoc6C(C)(C)C5CC[C@]43C)C12 (stereo partly drawn) [Compound 7]
[1]; 6 days treatment
  anti-invasive effects in 3D culture (in words): negligible effects on the invasive phenotype

## C=C(C)[C@@H]1CC[C@]2(C(=O)N3CCCCC3)CC[C@]3(C)C(CCC4[C@@]5(C)CC[C@H](O)C(C)(C)C5CC[C@]43C)C12 (stereo partly drawn) [Compound 21]
[3]
  activity in validation (wound healing) in words: inactive

## C=C(C)[C@@H]1CC[C@]2(C(N)=O)CC[C@]3(C)C(CCC4[C@@]5(C)Cc6nccnc6C(C)(C)C5CC[C@]43C)C12 (stereo partly drawn) [Compound 16]
[4]
  morphology and actin cytoskeleton of cells in 2D monolayer: No morphologies and visible effects on the actin cytoskeleton
[1]; 6 days treatment
  concentration at which anti-invasive effects are seen in 3D: 100 nM
  anti-invasive effects in 3D culture (in words): same high level of anti-invasive effects as compound 15
[2]
  efficacy in 3D LAPC-4 culture (dendrogram clusters): most active

## C=C(C)[C@@H]1CC[C@]2(C(=O)N3CCOCC3)CC[C@]3(C)C(CCC4[C@@]5(C)CCC(=O)C(C)(C)C5CC[C@]43C)C12 (stereo partly drawn) [Compound 14]
[1]; 6 days treatment
  anti-invasive effects in 3D culture (in words): None of these compounds showed significant anti-invasive effects

## Oc1ccc2ccccc2c1SSc1c(O)ccc2ccccc12 [IPA3, reference compound]
[4]
  morphology and actin cytoskeleton of cells in 2D monolayer: clear rounding

## C=C(C)[C@@H]1CC[C@]2(C(=O)NCCC)CC[C@]3(C)C(CCC4[C@@]5(C)CCC(=O)C(C)(C)C5CC[C@]43C)C12 (stereo partly drawn) [Compound 12]
[1]; 6 days treatment
  anti-invasive effects in 3D culture (in words): None of these compounds showed significant anti-invasive effects

## C=C(C)[C@@H]1CC[C@]2(C(=O)O)CC[C@]3(C)[C@H](CC[C@@H]4[C@@]5(C)CC[C@H](O)C(C)(C)[C@@H]5CC[C@]43C)[C@@H]12 [Compound 1, betulinic acid]
[4]
  morphology and actin cytoskeleton of cells in 2D monolayer: No morphologies and visible effects on the actin cytoskeleton
[1]; 6 days treatment
  anti-invasive effects in 3D culture (in words): did not show significant anti-invasive effects

## C=C(C)[C@@H]1CC[C@]2(C(N)=O)CC[C@]3(C)C(CCC4[C@@]5(C)Cc6cnoc6C(C)(C)C5CC[C@]43C)C12 (stereo partly drawn) [Compound 9]
[1]; 6 days treatment
  anti-invasive effects in 3D culture (in words): negligible effects on the invasive phenotype

## C=C(C)[C@@H]1CC[C@]2(C(=O)N3CCCCC3)CC[C@]3(C)C(CCC4[C@@]5(C)CCC(=O)C(C)(C)C5CC[C@]43C)C12 (stereo partly drawn) [Compound 13]
[1]; 6 days treatment
  anti-invasive effects in 3D culture (in words): None of these compounds showed significant anti-invasive effects

## C=C(C)[C@@H]1CC[C@]2(C(=O)N3CCCCC3)CC[C@]3(C)C(CCC4[C@@]5(C)Cc6nccnc6C(C)(C)C5CC[C@]43C)C12 (stereo partly drawn) [Compound 17]
[1]; 6 days treatment
  anti-invasive effects in 3D culture (in words): inactive

## C=C(C)[C@@H]1CC[C@]2(C#N)CC[C@]3(C)C(CCC4[C@@]5(C)Cc6nccnc6C(C)(C)C5CC[C@]43C)C12 (stereo partly drawn) [Compound 18, Lupa-2,20(29)-dieno[2,3-b]pyrazino-28-nitrile]
[1]; 6 days treatment
  anti-invasive effects in 3D culture (in words): inactive

## C=C(C)[C@@H]1CC[C@]2(C(=O)N3CCCC3)CC[C@]3(C)C(CCC4[C@@]5(C)CCC(=O)C(C)(C)C5CC[C@]43C)C12 (stereo partly drawn) [Compound 11]
[1]; 6 days treatment
  anti-invasive effects in 3D culture (in words): None of these compounds showed significant anti-invasive effects

## C=C(C)[C@@H]1CC[C@]2(CO)CC[C@]3(C)C(CCC4[C@@]5(C)Cc6cnoc6C(C)(C)C5CC[C@]43C)C12 (stereo partly drawn) [Compound 10]
[1]; 6 days treatment
  anti-invasive effects in 3D culture (in words): negligible effects on the invasive phenotype

## C[C@@H](N)[C@H]1CC[C@H](C(=O)Nc2ccncc2)CC1 [Compound Y-27632, reference compound]
[4]
  morphology and actin cytoskeleton of cells in 2D monolayer: elongation
